Structures can show the parent of a compound that is named as a salt.
molecular target: interaction between p53 and MDM2 proteins (recombinant GST-tagged MDM2 / p53 peptide) (Homo sapiens, UniProt Q00987); assay: HTRF assay of inhibition of the p53-MDM2 interaction (GST-MDM2 binding to biotinylated p53 peptide); conditions: 90 nM biotinylated p53 peptide, 160 ng/mL GST-MDM2, 37° C. 1 h
Experimental: The ability of the compounds to inhibit the interaction between p53 and MDM2 proteins was measured by an HTRF (homogeneous time-resolved fluorescence) assay in which recombinant GST-tagged MDM2 binds to a peptide that resembles the MDM2-interacting region of p53 (Lane et al.). Binding of GST-MDM2 protein and p53-peptide (biotinylated on its N-terminal end) is registered by the FRET (fluorescence resonance energy transfer) between Europium (Eu)-labeled anti-GST antibody and streptavidin-conjugated Allophycocyanin (APC).
Test is performed in black flat-bottom 384-well plates (Costar) in a total volume of 40 uL containing: 90 nM biotinylate peptide, 160 ng/mL GST-MDM2, 20 nM streptavidin-APC (PerkinElmerWallac), 2 nM Eu-labeled anti-GST-antibody (PerkinElmerWallac), 0.2% bovine serum albumin (BSA), 1 mM dithiothreitol (DTT) and 20 mM Tris-borate saline (TBS) buffer as follows: Add 10 uL of GST-MDM2 (640 ng/mL working solution) in reaction buffer to each well. Add 10 uL diluted compounds (1:5 dilution in reaction buffer) to each well, mix by shaking. Add 20 uL biotinylated p53 peptide (180 nM working solution) in reaction buffer to each well and mix on shaker. Incubate at 37° C. for 1 h. Add 20 uL streptavidin-APC and Eu-anti-GST antibody mixture (6 nM Eu-anti-GST and 60 nM streptavidin-APC working solution) in TBS buffer with 0.2% BSA, shake at room temperature for 30 minutes and read using a TRF-capable plate reader at 665 and 615 nm (Victor 5, Perkin ElmerWallac). If not specified, the reagents were purchased from Sigma Chemical Co.

Chain of interaction between p53 and MDM2 proteins (recombinant GST-tagged MDM2 / p53 peptide) (Q00987 whole entry): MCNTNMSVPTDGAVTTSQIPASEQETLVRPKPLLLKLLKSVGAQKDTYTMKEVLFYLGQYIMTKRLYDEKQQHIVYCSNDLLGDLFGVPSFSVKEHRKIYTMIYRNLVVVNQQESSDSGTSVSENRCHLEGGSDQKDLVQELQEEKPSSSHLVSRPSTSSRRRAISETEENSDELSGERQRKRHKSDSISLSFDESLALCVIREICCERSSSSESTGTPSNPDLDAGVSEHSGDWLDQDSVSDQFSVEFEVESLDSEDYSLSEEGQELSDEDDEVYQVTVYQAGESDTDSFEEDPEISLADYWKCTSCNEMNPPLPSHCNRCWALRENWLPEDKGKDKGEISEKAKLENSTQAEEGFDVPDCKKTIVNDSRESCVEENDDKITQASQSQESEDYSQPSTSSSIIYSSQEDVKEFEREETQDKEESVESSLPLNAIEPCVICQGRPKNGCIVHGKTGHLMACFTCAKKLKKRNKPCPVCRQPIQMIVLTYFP

Compound	IC50 [nM]
CCOc1nc(C(F)(F)F)ncc1C1=N[C@@H](c2ccc(Cl)cc2)[C@@H](c2ccc(Cl)cc2)N1C(=O)N1CCN(CCS(C)(=O)=O)CC1 (relative stereo) [Example 6, cis-[4,5-Bis-(4-chloro-phenyl)-2-(4-ethoxy-2-trifluoromethyl-pyrimidin-5-yl)-4,5-dihydro-imidazol-1-yl]-[4-(2-methanesulfonyl-ethyl)-piperazin-1-yl]-methanone]	2890
CCOc1nc(C)ncc1C1=N[C@@H](c2ccc(Cl)cc2)[C@@H](c2ccc(Cl)cc2)N1C(=O)N1CCN(CC(=O)N(C)C)CC1 (relative stereo) [Example 17, cis-2-{4-[4,5-Bis-(4-chloro-phenyl)-2-(4-ethoxy-2-methyl-pyrimidin-5-yl)-4,5-dihydro-imidazole-1-carbonyl]-piperazin-1-yl}-N,N-dimethyl-acetamide]	677
CCOc1nc(C(C)(C)C)ncc1C1=N[C@@H](c2ccc(Cl)cc2)[C@@H](c2ccc(Cl)cc2)N1C(=O)N1CCNC(=O)C1 (relative stereo) [Example 20, cis-4-[2-(2-tert-Butyl-4-ethoxy-pyrimidin-5-yl)-4,5-bis-(4-chloro-phenyl)-4,5-dihydro-imidazole-1-carbonyl]-piperazin-2-one hydrochloride]	46
CCOc1ccsc1C1=N[C@@H](c2ccc(Cl)cc2)[C@@H](c2ccc(Cl)cc2)N1C(=O)N1CCN(CC(=O)NC(C)(C)C)CC1 [Example 34, 2-{4-[(4S,5R)-4,5-Bis-(4-chloro-phenyl)-2-(3-ethoxy-thiophen-2-yl)-4,5-dihydro-imidazole-1-carbonyl]-piperazin-1-yl}-N-tert-butyl-acetamide]	110
CCOc1ccsc1C1=N[C@@H](c2ccc(Cl)cc2)[C@@H](c2ccc(Cl)cc2)N1C(=O)N1CCN(CC(=O)N(CCOC)CCOC)CC1 [Example 36, 2-{4-[(4S,5R)-4,5-Bis-(4-chloro-phenyl)-2-(3-ethoxy-thiophen-2-yl)-4,5-dihydro-imidazole-1-carbonyl]-piperazin-1-yl}-N,N-bis-(2-methoxy-ethyl)-acetamide]	54
